According to patent publication US20120252689A1, “GENE EXPRESSION SIGNATURE FOR WNT/B-CATENIN SIGNALING PATHWAY AND USE THEREOF” (priority 2011, published 2012):

Key:
[1] = tested on: active β-catenin; assay: Western blot of active β-catenin after LiCl treatment of 293H and CCD1079SK cells; format: cell-based, human; conditions: 20 μM LiCl, 24 h in serum-free medium, FIG. 3B
Protocol: For positive regulation with LiCl treatment, 293H and CCD1079SKcells were plated in 6-well plate in a density of 2×10^5 cells/well/2 ml and cells were switched to serum-free medium 24 hours after plating. After 12 hours incubation in serum-free medium, cells were treated with or without 20 μM LiCl for 24 h in serum-free medium. At the end of treatment, cells were lysed in 200 μl of G6 lysis buffer and RNA was isolated with RT2 qPCR-Grade RNA Isolation Kit from SABiosciences according to manufacturer's protocol described in experimental protocol section. The protein extraction and western blot was carried out according to western blot protocol with mouse anti-active β-catenin antibody (1:1000). […] The RNA was isolated with RT2 qPCR-Grade RNA Isolation Kit from SABiosciences according to manufacturer's protocol described in experimental protocol section.
(§1) At the end of experimental treatment, cells were lysed in Modified RIPA buffer (150 mM NaCl, 50 mM TrisHCl, 1% IGEPAL, 0.5% sodium deoxycholate, 1 mM EDTA, 1% Triton X-100 and 0.1% SDS with protease and phosphatase inhibitor) (all chemicals from Sigma). […] After 15 minutes centrifuge at 15000 rpm at 4 degrees C., supernatant was transferred to a new 1.5 ml tube and protein concentration was measured with BCA protein assay according to manufacturer's standard protocol (Pierce). […]

[2] = tested on: active β-catenin; assay: Western blot of active β-catenin after Wnt3a treatment of ten different cell lines; format: cell-based; conditions: 400 ng/ml Wnt3a, 12 h in serum-free medium, FIG. 3B
Protocol: To obtain ten positively regulated samples with Wnt3a treatment, ten different cell lines were plated in 6-well plates in a density of 2×10^5 cells/well/2 ml. After 24 h of plating, cells were switched to serum-free medium by removing normal culture medium, washing cells in PBS two times and replacing with 1 ml serum-free medium each well. After 12 hours in serum-free medium, cells were replaced with serum-free medium with or without 400 ng/ml Wnt3a in duplicate wells for an additional incubation of 12 h. At the end of 12 hours incubation, cells were either lysed in 50 μl modified RIPA buffer for protein lysate extraction or in 200 μl G6 lysis buffer for RNA isolation. The protein extraction and western blot was carried out according to western blot protocol with mouse anti-active β-catenin antibody (1:1000). […]
as §1

[3] = tested on: Wnt/β-catenin target genes such as β-catenin (CTNNB1), MYC, CCND1 and AXIN2; assay: Real-time RT-PCR of Wnt/β-catenin target genes after Wnt3a treatment of 293H cells; format: cell-based, human; conditions: 400 ng/ml Wnt3a, 12 hours, compared to untreated samples, FIG. 2B
Protocol: (§2) The protocol that was used to identify the subject gene signature is depicted schematically in FIG. 1. As depicted therein, human embryonic kidney 293H cells were plated in 6-well plate in a density of 10′ cells per well in 2 ml growth medium. Plated cells were incubated in a cell culture incubator at 37 degrees C. with 5% CO2 supplied. Twenty four hours after plating, cells were transfected with siRNA specifically targeting β-catenin or non targeting siRNA as control. For each well, 6 μl of SureFECT transfection reagent (SABiosciences, a QIAGEN company) was diluted into 200 μl of OptiMEM medium (Invitrogen). The diluted transfection reagent was mixed with 20 nM −β catenin targeting siRNA duplex D ([…] (SEQ ID NO: 65)) (SABiosciences, a QIAGEN Company) or non-targeting siRNA ([…] (SEQ ID NO: 66)) (SABiosciences, a QIAGEN owned company) as control. After incubation at room temperature for 20 min, the transfection mixture was added into 293H cells in 6-well plate with 2 ml growth medium. […]
For RNA extraction, cells were lysed in 200 μl of G6 buffer (SABiosciences, a QIAGEN company) for each well. […] The concentration of RNA was measured with Nanodrop spectrophotometer (Thermo SCIENTIFIC) and the RNA was further processed for real-time RT PCR or microarray gene expression profiling analysis. […]

[4] = tested on: active β-catenin; assay: Western blot of active β-catenin after Wnt3a treatment of 293H cells; format: cell-based, human; conditions: 400 ng/ml Wnt3a, 12 hour treatment in serum-free medium, compared to untreated samples, FIG. 2A
Protocol: as §2, with “control.” for “control. After incubation at room temperature for 20 min, the transfection mixture was added into 293H cells in 6-well plate with 2 ml growth medium.”
as §1

Compound | active β-catenin protein levels [1] | active β-catenin protein levels [2] | mRNA expression of Wnt/β-catenin target genes (CTNNB1, MYC, CCND1, AXIN2) [3] | protein levels of active β-catenin [4]
[Cl-].[Li+] [LiCl] | increased active β-catenin protein levels | – | – | –
Wnt3a | – | increased active β-catenin protein levels | upregulation of Wnt/β-catenin target genes | increased protein levels of active β-catenin
